{"source": "patent US20150119410A1", "about": "“BIOMARKERS OF RESPONSE TO NAE INHIBITORS” (MILLENNIUM PHARMACEUTICALS, INC., priority 2011, published 2015)", "assay_in_all_cases": "Cell line panel 2 high-content screen", "type_in_all_cases": "cell-based", "key": {"[1]": {"test_system": "647-V", "settings": "Homo sapiens; 647-V (urinary_tract); 72 hours", "experimental": "(§1) To support clinical development and identify potential biomarkers of tumor sensitivity or resistance, two large cancer cell line panels (Panel 1, N=653 (McDermott et al. (2007) PNAS 104:19936-19941); Panel 2, N=240 (O'Day et al. (2010) Fourth AACR International Conference on Molecular Diagnostics in Cancer Therapeutic Development)) were treated with MLN4924 and cell viability data (IC50, EC50, and POC—Percentage of Control) were generated.\n(§2) Panel 2 (Ricerca Biosciences, Inc., Bothell, Wash.). MLN4924 was added in half-log dilutions for 10 concentrations and treated for 72 hours. High-content cell screening by fluorescence microscopy included image analysis to generate several types of data. Results included EC50 values (after measurement of cell numbers, the EC50 concentration was calculated from the inflection point of a curve of percent of control (POC) against log of MLN4924 concentration), IC50 values (from the POC-log MLN4924 plot, IC50 is the concentration at 50% maximal possible response), apoptosis (measurement of activation of caspase 3 plotted against log of MLN4924 concentration, determined as the concentration for >5 fold induction), and mitotic activity (determined by measuring the fold increase of phospho-histone 3). A comparison of EC50 to IC50 (FIG. 3) allowed assignment of cell lines to sensitive, insensitive or resistant. Final identification of a cell line as sensitive or resistant was based on the EC50 values. The cutoff for sensitivity is a median EC50 of less than the median value of all POC's recorded in the panel (<0.36), borderline sensitivity was associated with median EC50 of 0.36 to 1.67 and insensitive or resistant cell lines were identified by EC50 greater than the 3rd quartile of all POC's in the panel (>1.67)."}, "[2]": {"test_system": "ACHN", "settings": "Homo sapiens; ACHN (kidney); 72 hours", "experimental": "as §1, §2"}, "[3]": {"test_system": "BV-173", "settings": "BV-173 (haematopoietic, lymphoid_tissue)", "experimental": "as §1, §2"}, "[4]": {"test_system": "BxPC-3", "settings": "Homo sapiens; BxPC-3 (pancreas); 72 hours", "experimental": "as §1, §2"}, "[5]": {"test_system": "CAL-27", "settings": "Homo sapiens; CAL-27 (upper aerodigestive tract); 72 hours", "experimental": "as §1, §2"}, "[6]": {"test_system": "CAPAN-1", "settings": "Homo sapiens; CAPAN-1 (pancreas); 72 hours", "experimental": "as §1, §2"}, "[7]": {"test_system": "CFPAC-1", "settings": "Homo sapiens; CFPAC-1 (pancreas); 72 hours", "experimental": "as §1, §2"}, "[8]": {"test_system": "COLO-205", "settings": "Homo sapiens; COLO-205 (intestine); 72 hours", "experimental": "as §1, §2"}, "[9]": {"test_system": "COLO320 HSR", "settings": "Homo sapiens, COLO-320-HSR; COLO320 HSR (intestine); 72 hours", "experimental": "as §1, §2"}, "[10]": {"test_system": "FADU", "settings": "Homo sapiens; FADU (upper aerodigestive tract); 72 hours", "experimental": "as §1, §2"}, "[11]": {"test_system": "HT29", "settings": "Homo sapiens; HT29 / HT-29 (intestine); 72 hours", "experimental": "as §1, §2"}, "[12]": {"test_system": "LS-174T", "settings": "Homo sapiens, LS174T; LS-174T (large_intestine); 72 hours", "experimental": "as §1, §2"}, "[13]": {"test_system": "LS1034", "settings": "Homo sapiens, LS-1034; LS1034 (intestine); 72 hours", "experimental": "as §1, §2"}, "[14]": {"test_system": "MDA-MB-231", "settings": "Homo sapiens; MDA-MB-231 (breast); 72 hours", "experimental": "as §1, §2"}, "[15]": {"test_system": "MDA-MB-468", "settings": "Homo sapiens; MDA-MB-468 (breast); 72 hours", "experimental": "as §1, §2"}, "[16]": {"test_system": "MIA-PaCa-2", "settings": "Homo sapiens; MIA-PaCa-2 (pancreas); 72 hours", "experimental": "as §1, §2"}, "[17]": {"test_system": "NCl-H520", "settings": "NCl-H520 (lung NSCLC); 72 hours", "experimental": "as §1, §2"}, "[18]": {"test_system": "NClH747", "settings": "NClH747 (intestine); 72 hours", "experimental": "as §1, §2"}, "[19]": {"test_system": "RL95-2", "settings": "RL95-2 (endometrium)", "experimental": "as §1, §2"}, "[20]": {"test_system": "SK-OV-3", "settings": "Homo sapiens; SK-OV-3 (ovary); 72 hours", "experimental": "as §1, §2"}, "[21]": {"test_system": "SW 1116", "settings": "Homo sapiens; SW 1116 (intestine); 72 hours", "experimental": "as §1, §2"}, "[22]": {"test_system": "SW1417", "settings": "Homo sapiens; SW1417 (intestine); 72 hours", "experimental": "as §1, §2"}, "[23]": {"test_system": "SW620", "settings": "Homo sapiens, SW-620; SW620 (intestine); 72 hours", "experimental": "as §1, §2"}, "[24]": {"test_system": "SW837", "settings": "Homo sapiens; SW837 (intestine); 72 hours", "experimental": "as §1, §2"}, "[25]": {"test_system": "SW954", "settings": "SW954 (vulva)", "experimental": "as §1, §2"}, "[26]": {"test_system": "T84", "settings": "Homo sapiens; T84 (intestine); 72 hours", "experimental": "as §1, §2"}, "[27]": {"test_system": "THP-1", "settings": "THP-1 (haematopoietic, lymphoid_tissue)", "experimental": "as §1, §2"}, "[28]": {"test_system": "YAPC", "settings": "Homo sapiens; YAPC (pancreas); 72 hours", "experimental": "as §1, §2"}}, "note": "pEC50: −log10 of the molar value.", "data": [{"smiles": "NS(=O)(=O)OC[C@@H]1C[C@@H](n2ccc3c(N[C@H]4CCc5ccccc54)ncnc32)C[C@@H]1O", "note": "[MLN4924, ((1S,2S,4R)-4-{4-[(1S)-2,3-dihydro-1H-inden-1-ylamino]-7H-pyrrolo[2,3-d]pyrimidin-7-yl}-2-hydroxycyclopentyl)methyl sulphamate]", "values": [{"measurement": "pEC50", "setting": "[1]", "value": 6.55}, {"measurement": "pEC50", "setting": "[2]", "value": 6.19}, {"measurement": "Phenotype", "setting": "[3]; KDM6A mutant", "value": "sensitive (The cutoff for sensitivity is a median EC50 of less than the median value of all POC's recorded in the panel (<0.36))"}, {"measurement": "pEC50", "setting": "[3]; Homo sapiens, 72 hours", "value": 6.88}, {"measurement": "pEC50", "setting": "[4]", "value": 6.60}, {"measurement": "pEC50", "setting": "[5]", "value": 6.86}, {"measurement": "pEC50", "setting": "[6]", "value": 6.44}, {"measurement": "pEC50", "setting": "[7]", "value": 5.20}, {"measurement": "pEC50", "setting": "[8]", "value": 7.03}, {"measurement": "pEC50", "setting": "[9]", "value": 5.75}, {"measurement": "pEC50", "setting": "[10]", "value": 6.58}, {"measurement": "pEC50", "setting": "[11]", "value": 6.60}, {"measurement": "pEC50", "setting": "[12]", "value": 6.86}, {"measurement": "pEC50", "setting": "[13]", "value": 5.42}, {"measurement": "pEC50", "setting": "[14]", "value": 6.06}, {"measurement": "pEC50", "setting": "[15]", "value": 7.57}, {"measurement": "pEC50", "setting": "[16]", "value": 6.62}, {"measurement": "pEC50", "setting": "[17]", "value": 6.58}, {"measurement": "pEC50", "setting": "[18]", "value": 5.68}, {"measurement": "pEC50", "setting": "[19]; Homo sapiens, 72 hours", "value": 7.03}, {"measurement": "Phenotype", "setting": "[19]; NF2 mutant", "value": "sensitive (The cutoff for sensitivity is a median EC50 of less than the median value of all POC's recorded in the panel (<0.36))"}, {"measurement": "pEC50", "setting": "[20]", "value": 5.00}, {"measurement": "pEC50", "setting": "[21]", "value": 5.00}, {"measurement": "pEC50", "setting": "[22]", "value": 5.04}, {"measurement": "pEC50", "setting": "[23]", "value": 6.41}, {"measurement": "pEC50", "setting": "[24]", "value": 6.16}, {"measurement": "pEC50", "setting": "[25]; Homo sapiens, SW 954, 72 hours", "value": 6.49}, {"measurement": "Phenotype", "setting": "[25]; SMAD4 mutant", "value": "sensitive (The cutoff for sensitivity is a median EC50 of less than the median value of all POC's recorded in the panel (<0.36))"}, {"measurement": "pEC50", "setting": "[26]", "value": 6.25}, {"measurement": "pEC50", "setting": "[27]; Homo sapiens, 72 hours", "value": 6.83}, {"measurement": "Phenotype", "setting": "[27]; KDM6A mutant", "value": "sensitive (The cutoff for sensitivity is a median EC50 of less than the median value of all POC's recorded in the panel (<0.36))"}, {"measurement": "pEC50", "setting": "[28]", "value": 6.63}]}]}
